According to patent US8847000B2 (priority 2006, dated 2014):

System: cell proliferation
Format: cell-based

| Substance | IC50 [µM] |
| --- | --- |
| Arsenious acid | 10 |
| trimethylarsineoxide [TMAO] | > 6000 |
